Calls of active or inactive are those of the source. No cut-off for these calls is given here.

The test system of series [1] is Rattus norvegicus. Description: Antiinflammatory activity in Wistar rat mycobacterial adjuvant-induced arthritis model assessed as inhibition of swelling at 30 mg/kg/day, po measured on day 14 relative to control. As to conditions: 336 h. The format is functional.
Series [2] relates to Rattus norvegicus. Description: Antiinflammatory activity in Wistar rat mycobacterial adjuvant-induced arthritis model assessed as inhibition of swelling at 30 mg/kg/day, po measured on day 3 relative to control. The format is functional. As to conditions: 72 h.
Series [3] concerns Rattus norvegicus. Description: Antiinflammatory activity in Wistar rat mycobacterial adjuvant-induced arthritis model assessed as suppression of secondary lesions at 30 mg/kg/day, po measured on day 14. The format is functional, organism-based.
Series [4] has as its system Rattus norvegicus. Put plainly: Toxicity in Wistar rat mycobacterial adjuvant-induced arthritis model assessed as increase in body weight at 30 mg/kg/day, po after 14 days (reference value: 19 g). The format is organism-based. Further details: route oral. To be noted: in vivo, 336 h.

By inhibition in vivo is commonly meant the change of the read-out against control, counted positive when it falls. On to `COc1ccc2cc([C@H](C)C(=O)O)ccc2c1` [NAPROXEN], for which the inhibition in vivo at 30 mg/kg/day with Rattus norvegicus [1] was found to be 65%.
For the molecule `O=C(O)c1ccc(=O)n([C@@H]2O[C@H](CO)[C@@H](O)[C@H]2O)c1`, the inhibition in vivo at 30 mg/kg/day is 21% in the series on Rattus norvegicus [2] and 37% in the series with Rattus norvegicus [1]. For the same molecule, in the series with Rattus norvegicus [3], the outcome was inactive. The Activity with Rattus norvegicus [4] is listed as 22 g.

Values taken from ChEMBL document CHEMBL3244291, “Synthesis and antiinflammatory activity of 6-oxo-1-(beta-D-ribofuranosyl)nocotinic acid and related derivatives” (J Med Chem, 1978).
